US20070117743A1, “New antitumoral compounds” (priority 2003, published 2007)
Read-outs that look alike come from different tables or passages of the source. Where a SMILES comes first, the peptide text is derived from it. Bridges are numbered along the chain shown (N, C = ends). [ ]: non-standard residue; d: D form. The star is where a group is joined. Hexanoyl(4S-Me) = CC[C@H](C)CCC(=O)*; d(aIle) = CC[C@H](C)[C@@H](N)C(=O)O; d(aThr) = C[C@@H](O)[C@@H](N)C(=O)O; Hexanoyl(5-Me) = CC(C)CCCC(=O)*; Orn = NCCC[C@H](N)C(=O)O; Dhb = C/C=C(\N)C(=O)O

How the values were obtained:
Format in all cases: cell-based, human
LoVo-Dox = experiment: SRB colorimetric assay of cell growth and viability, LoVo-Dox; settings: 48 hours exposure; for CC50: read-out: LC50 LOVO-DOX
In short: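 Optical density at 490 nm of solubilized SRB, from triplicate wells, yields GI, TGI and LC values. Before staining, cells are fixed for 60 minutes at 4° C in cold TCA after a 48-hour exposure.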

K-562 = experiment: SRB colorimetric assay of cell growth and viability, K-562; settings: 48 hours exposure; for CC50: read-out: LC50 K-562
LoVo = experiment: SRB colorimetric assay of cell growth and viability, LoVo; settings: 48 hours exposure; for CC50: read-out: LC50 LOVO
SK-MEL-28 = experiment: SRB colorimetric assay of cell growth and viability, SK-MEL-28; settings: 48 hours exposure; for CC50: read-out: LC50 MEL-28
A-549 = experiment: SRB colorimetric assay of cell growth and viability, A-549; settings: 48 hours exposure; for GI50: read-out: GI50 A-549; for CC50: read-out: LC50 A-549
PANC-1 = experiment: SRB colorimetric assay of cell growth and viability, PANC-1; settings: 48 hours exposure; for CC50: read-out: LC50 PANC-1
DU-145 = experiment: SRB colorimetric assay of cell growth and viability, DU-145; settings: 48 hours exposure
SK-BR-3 = experiment: SRB colorimetric assay of cell growth and viability, SK-BR-3; settings: 48 hours exposure
Source text: The finality of this assay is to interrupt the growth of a “in vitro” tumor cell culture by means a continued exhibition of the cells to the sample to be testing.
This form of the assay employs 96 well cell culture microplates of 9 mm diameter (Faircloth, 1988; Mosmann, 1983). Most of the cell lines are obtained from American Type Culture Collection (ATCC) derived from different human cancer types.
Cells are maintained in RPMI 1640 10% FBS, supplemented with 0.1 g/l penicillin and 0.1 g/l streptomycin sulfate and then incubated at 37° C., 5% CO2 and 98% humidity. For the experiments, cells were harvested from subconfluent cultures using trypsin and resuspended in fresh medium before plating.
Cells are seeded in 96 well microtiter plates, at 5×10^3 cells per well in aliquots of 195 μL medium, and they are allowed to attach to the plate surface by growing in drug free medium for 18 hours. Afterward, samples are added in aliquots of 5 μL in a ranging from 10 to 10^−8 μg/mL, dissolved in DMSO:EtOH:PBS (0.5:0.5:99). After 48 hours exposure, the antitumor effect are measured by the SRB methodology: cells are fixed by adding 50 μL of cold 50% (wt/vol) trichloroacetic acid (TCA) and incubating for 60 minutes at 4° C. Plates are washed with deionized water and dried. One hundred μL of SRB solution (0.4% wt/vol in 1% acetic acid) is added to each microtiter well and incubated for 10 minutes at room temperature. Unbound SRB is removed by washing with 1% acetic acid. Plates are air dried and bound stain is solubilized with Tris buffer. Optical densities are read on a automated spectrophotometric plate reader at a single wavelength of 490 nm.
The values for mean+/− SD of data from triplicate wells are calculated. Some parameters for cellular responses can be calculated: GI=growth inhibition, TGI=total growth inhibition (cytostatic effect) and LC=cell killing (cytotoxic effect).

HT-29 = experiment: SRB colorimetric assay of cell growth and viability, HT-29; settings: 48 hours exposure; for GI50: read-out: GI50 HT-29; for CC50: read-out: LC50 HT-29
IGROV-ET = experiment: SRB colorimetric assay of cell growth and viability, IGROV-ET; settings: 48 hours exposure; for CC50: read-out: LC50 IGROV-ET
HeLa = experiment: SRB colorimetric assay of cell growth and viability, HeLa; settings: 48 hours exposure; for CC50: read-out: LC50 HELA
HeLa-APL = experiment: SRB colorimetric assay of cell growth and viability, HeLa-APL; settings: 48 hours exposure; for CC50: read-out: LC50 HELA-APL
IGROV-1 = experiment: SRB colorimetric assay of cell growth and viability, IGROV-1; settings: 48 hours exposure

SMILES: C/C=C1\NC(=O)[C@H](Cc2ccc(OC)cc2)NC(=O)[C@@H](C(C)C)NC(=O)[C@@H]([C@@H](C)CC)NC(=O)[C@H](NC(=O)[C@H](NC(=O)[C@H](CCCN)NC(=O)[C@H]2CCCN2C(=O)[C@H](NC(=O)[C@@H](NC(=O)[C@@H](NC(=O)[C@H](NC(=O)CC[C@@H](C)CC)C(C)C)[C@@H](C)O)C(C)C)C(C)C)[C@@H](C)CC)[C@@H](C)OC(=O)[C@H](C(C)C)NC1=O [Compound 75, [Tyr(Me)^3, (4S)-MeHex^14]-KF] ({Hexanoyl(4S-Me)}-[dV]TV[dV][dP][Orn][d(aIle)][d(aThr)][d(aIle)][dV]Y(Me)[Dhb]V; ester 8-C)
- GI50 (LoVo-Dox; SRB): 137 nM
- TGI LOVO-DOX (LoVo-Dox; SRB): 2.27E−07 Molar
- CC50 (LoVo-Dox; SRB): 379 nM
- GI50 (K-562; SRB): 533 nM
- TGI K-562 (K-562; SRB): 2.15E−06 Molar
- CC50 (K-562; SRB): 6630 nM
- GI50 (LoVo; SRB): 126 nM
- TGI LOVO (LoVo; SRB): 2.22E−07 Molar
- CC50 (LoVo; SRB): 391 nM
- GI50 (SK-MEL-28; SRB): 975 nM
- TGI MEL-28 (SK-MEL-28; SRB): 1.82E−06 Molar
- CC50 (SK-MEL-28; SRB): 3400 nM
- TGI A-549 (A-549; SRB): 1.91E−06 Molar
- GI50 (A-549; SRB): 1030 nM
- CC50 (A-549; SRB): 3550 nM
- GI50 (PANC-1; SRB): 1700 nM
- TGI PANC-1 (PANC-1; SRB): 3.08E−06 Molar
- CC50 (PANC-1; SRB): 5590 nM
- GI50 (DU-145; SRB): 749 nM
- LC50 (concentration causing 50% net cell kill) (DU-145; SRB): 3160 nM
- TGI DU-145 (DU-145; SRB): 1.54E−06 Molar
- GI50 (SK-BR-3; SRB): 251 nM
- LC50 (SK-BR-3; SRB): 2380 nM
- TGI SK-BR-3 (SK-BR-3; SRB): 6.03E−07 Molar
- TGI HT-29 (HT-29; SRB): 2.80E−07 Molar
- GI50 (HT-29; SRB): 158 nM
- CC50 (HT-29; SRB): 495 nM
- GI50 (IGROV-ET; SRB): 380 nM
- TGI IGROV-ET (IGROV-ET; SRB): 9.09E−07 Molar
- CC50 (IGROV-ET; SRB): 2410 nM
- GI50 (HeLa; SRB): 509 nM
- TGI HELA (HeLa; SRB): 1.18E−06 Molar
- CC50 (HeLa; SRB): 2500 nM
- GI50 (HeLa-APL; SRB): 942 nM
- TGI HELA-APL (HeLa-APL; SRB): 1.78E−06 Molar
- CC50 (HeLa-APL; SRB): 3380 nM
- GI50 (IGROV-1; SRB): 350 nM
- LC50 (concentration causing 50% net cell killing) (IGROV-1; SRB): 2360 nM
- TGI IGROV (IGROV-1; SRB): 8.36E−07 Molar

SMILES: [2H]C([2H])([2H])C([2H])(C([2H])([2H])[2H])[C@]([2H])(NC(=O)[C@@H](NC(=O)[C@H](NC(=O)CCCC(C)C)C(C)C)[C@@H](C)O)C(=O)N[C@@H](C(=O)N1CCC[C@@H]1C(=O)N[C@@H](CCCN)C(=O)N[C@@H](C(=O)N[C@H]1C(=O)N[C@H]([C@@H](C)CC)C(=O)N[C@H](C(C)C)C(=O)N[C@@H](Cc2ccccc2)C(=O)N/C(=C\C)C(=O)N[C@@H](C(C)C)C(=O)O[C@@H]1C)[C@@H](C)CC)C(C)C [Compound 100, [L-Val-d8^11]-KF]
- GI50 (LoVo-Dox; LOVO-DOX): 123 nM
- TGI LOVO-DOX (LoVo-Dox; LOVO-DOX): 6.88E−07 Molar
- CC50 (LoVo-Dox; LOVO-DOX): 1380 nM
- GI50 (K-562; K-562): 1880 nM
- TGI K-562 (K-562; K-562): 1.88E−06 Molar
- CC50 (K-562; K-562): 1880 nM
- GI50 (LoVo; LOVO): 181 nM
- TGI LOVO (LoVo; LOVO): 6.38E−07 Molar
- CC50 (LoVo; LOVO): 1260 nM
- GI50 (SK-MEL-28; SRB): 963 nM
- TGI MEL-28 (SK-MEL-28; SRB): 1.46E−06 Molar
- CC50 (SK-MEL-28; MEL-28): 1880 nM
- TGI A-549 (A-549; A-549): 1.88E−06 Molar
- GI50 (A-549; A-549): 1880 nM
- CC50 (A-549; A-549): 1880 nM
- GI50 (PANC-1; PANC-1): 1880 nM
- TGI PANC-1 (PANC-1; PANC-1): 1.88E−06 Molar
- CC50 (PANC-1; PANC-1): 1880 nM
- GI50 (DU-145; SRB): 544 nM
- TGI DU-145 (DU-145; SRB): 9.69E−07 Molar
- LC50 (concentration causing 50% net cell kill) (DU-145; DU-145): 1590 nM
- GI50 (SK-BR-3; SRB): 348 nM
- TGI SK-BR-3 (SK-BR-3; SRB): 8.19E−07 Molar
- LC50 (SK-BR-3; SK-BR-3): 1450 nM
- TGI HT-29 (HT-29; HT-29): 6.50E−07 Molar
- GI50 (HT-29; HT-29): 318 nM
- CC50 (HT-29; HT-29): 1180 nM
- GI50 (IGROV-ET; SRB): 399 nM
- TGI IGROV-ET (IGROV-ET; SRB): 7.63E−07 Molar
- CC50 (IGROV-ET; IGROV-ET): 1750 nM
- GI50 (HeLa; HELA): 681 nM
- TGI HELA (HeLa; HELA): 1.15E−06 Molar
- CC50 (HeLa; HELA): 1880 nM
- GI50 (IGROV-1; SRB): 781 nM
- TGI IGROV (IGROV-1; SRB): 1.16E−06 Molar
- LC50 (concentration causing 50% net cell killing) (IGROV-1; IGROV): 1730 nM

SMILES: C/C=C1\NC(=O)[C@H](Cc2ccccc2)NC(=O)[C@@H](C(C)C)NC(=O)[C@@H]([C@@H](C)CC)NC(=O)[C@H](NC(=O)[C@H](NC(=O)[C@H](CCCN)NC(=O)[C@H]2CCCN2C(=O)[C@H](NC(=O)[C@@H](NC(=O)[C@H](CCC(N)=O)NC(=O)[C@H](NC(=O)CCCC(C)C)C(C)C)C(C)C)C(C)C)[C@@H](C)CC)[C@@H](C)OC(=O)[C@H](C(C)C)NC1=O [Compound 119, [Gln^12]-KF] ({Hexanoyl(5-Me)}-[dV]QV[dV][dP][Orn][d(aIle)][d(aThr)][d(aIle)][dV]F[Dhb]V; ester 8-C)
- GI50 (LoVo-Dox; LOVO-DOX): 591 nM
- TGI LOVO-DOX (LoVo-Dox; LOVO-DOX): 1.16E−06 Molar
- CC50 (LoVo-Dox; LOVO-DOX): 1990 nM
- GI50 (K-562; K-562): 1990 nM
- TGI K-562 (K-562; K-562): 1.99E−06 Molar
- CC50 (K-562; K-562): 1990 nM
- GI50 (SK-MEL-28; MEL-28): 1990 nM
- TGI MEL-28 (SK-MEL-28; MEL-28): 1.99E−06 Molar
- CC50 (SK-MEL-28; MEL-28): 1990 nM
- TGI A-549 (A-549; A-549): 1.99E−06 Molar
- GI50 (A-549; A-549): 1990 nM
- CC50 (A-549; A-549): 1990 nM
- GI50 (PANC-1; PANC-1): 1990 nM
- TGI PANC-1 (PANC-1; PANC-1): 1.99E−06 Molar
- CC50 (PANC-1; PANC-1): 1990 nM
- GI50 (DU-145; DU-145): 1990 nM
- LC50 (concentration causing 50% net cell kill) (DU-145; DU-145): 1990 nM
- TGI DU-145 (DU-145; DU-145): 1.99E−06 Molar
- GI50 (SK-BR-3; SK-BR-3): 258 nM
- LC50 (SK-BR-3; SK-BR-3): 1560 nM
- TGI SK-BR-3 (SK-BR-3; SK-BR-3): 5.34E−07 Molar
- TGI HT-29 (HT-29; HT-29): 1.35E−06 Molar
- GI50 (HT-29; HT-29): 864 nM
- CC50 (HT-29; HT-29): 1990 nM
- GI50 (IGROV-ET; IGROV-ET): 764 nM
- TGI IGROV-ET (IGROV-ET; IGROV-ET): 1.37E−06 Molar
- CC50 (IGROV-ET; IGROV-ET): 1990 nM
- GI50 (HeLa; HELA): 379 nM
- TGI HELA (HeLa; HELA): 6.64E−07 Molar
- CC50 (HeLa; HELA): 1990 nM
- GI50 (HeLa-APL; HELA-APL): 1990 nM
- TGI HELA-APL (HeLa-APL; HELA-APL): 1.99E−06 Molar
- CC50 (HeLa-APL; HELA-APL): 1990 nM
- GI50 (IGROV-1; IGROV): 651 nM
- LC50 (concentration causing 50% net cell killing) (IGROV-1; IGROV): 1740 nM
- TGI IGROV (IGROV-1; IGROV): 1.07E−06 Molar
